Assay results taken from DBAASP.
≈ marks a conversion by molar mass, not a printed value.

Tests used:
Experiment in all cases: ≥ marks a high value that may be exact or a test limit, other limits are often not marked, values filed in µg/mL are converted to µM
Escherichia coli = system: Escherichia coli
Klebsiella pneumoniae = system: Klebsiella pneumoniae
Acinetobacter baumannii = system: Acinetobacter baumannii
[1] = system: Escherichia coli ATCC 25922
[2] = system: Salmonella enterica subsp. enterica serovar Typhimurium ATCC 14028
[3] = system: Pseudomonas aeruginosa ATCC 27853
Escherichia coli K88 = system: Escherichia coli K88
[4] = system: Salmonella enterica subsp. enterica serovar Pullorum C79-13
[5] = system: Pseudomonas aeruginosa PAO1
[6] = system: Pseudomonas aeruginosa CICC 21630
[7] = system: Salmonella enterica subsp. enterica serovar Typhimurium C77-31
Escherichia coli UB1005 = system: Escherichia coli UB1005
[8] = system: Pseudomonas aeruginosa CICC 21625
Escherichia coli K99 = system: Escherichia coli K99
Pseudomonas aeruginosa = system: Pseudomonas aeruginosa
[9] = system: Cryptococcus neoformans ATCC 208821
[10] = system: Candida albicans ATCC 90028
[11] = system: Acinetobacter baumannii ATCC 19606
[12] = system: Klebsiella pneumoniae ATCC 13883
[13] = system: Klebsiella pneumoniae ATCC BAA-2146
[14] = system: Staphylococcus aureus ATCC 43300
[15] = system: Bacillus subtilis ATCC 6051
[16] = system: Klebsiella pneumoniae ATCC 700603

Row | Compound | MIC (Escherichia coli) | MIC (Klebsiella pneumoniae) | MIC (Acinetobacter baumannii) | MIC [1] | MIC [2] | MIC [3] | MIC (Escherichia coli K88) | MIC [4] | MIC [5] | MIC [6] | MIC [7] | MIC (Escherichia coli UB1005) | MIC [8] | MIC (Escherichia coli K99) | MIC (Pseudomonas aeruginosa) | MIC [9] | MIC [10] | MIC [11] | MIC [12] | MIC [13] | also measured
1 | CC[C@H](C)[C@H](N)C(=O)N[C@@H](CCCCN)C(=O)N1CCC[C@H]1C(=O)N[C@H](C(=O)N[C@H](C(=O)N[C@@H](CCCCN)C(=O)N1CCC[C@H]1C(=O)N[C@H](C(=O)N[C@H](C(=O)N[C@@H](CCCCN)C(=O)N1CCC[C@H]1C(=O)N[C@H](C(=O)N[C@H](C(=O)N[C@@H](CCCCN)C(=O)N1CCC[C@H]1C(=O)N[C@H](C(=O)N[C@H](C(=O)N[C@@H](CCCCN)C(=O)N1CCC[C@H]1C(=O)N[C@H](C(N)=O)[C@@H](C)CC)[C@@H](C)CC)[C@@H](C)CC)[C@@H](C)CC)[C@@H](C)CC)[C@@H](C)CC)[C@@H](C)CC)[C@@H](C)CC)[C@@H](C)CC [IKPIIKPIIKPIIKPIIKPI] | > 64 µM | > 64 µM | ≥ 64 µM | > 64 µM | > 64 µM | > 64 µM | ≥ 64 µM | ≥ 64 µM | > 64 µM | ≥ 64 µM | ≥ 64 µM | ≥ 64 µM | ≥ 64 µM | ≥ 64 µM | > 64 µM | – | – | – | – | – | –
2 | CC[C@H](C)[C@H](N)C(=O)N[C@@H](CCCN=C(N)N)C(=O)N1CCC[C@H]1C(=O)N[C@H](C(=O)N[C@H](C(=O)N[C@@H](CCCN=C(N)N)C(=O)N1CCC[C@H]1C(=O)N[C@H](C(=O)N[C@H](C(=O)N[C@@H](CCCN=C(N)N)C(=O)N1CCC[C@H]1C(=O)N[C@H](C(=O)N[C@H](C(=O)N[C@@H](CCCN=C(N)N)C(=O)N1CCC[C@H]1C(=O)N[C@H](C(=O)N[C@H](C(=O)N[C@@H](CCCN=C(N)N)C(=O)N1CCC[C@H]1C(=O)N[C@H](C(N)=O)[C@@H](C)CC)[C@@H](C)CC)[C@@H](C)CC)[C@@H](C)CC)[C@@H](C)CC)[C@@H](C)CC)[C@@H](C)CC)[C@@H](C)CC)[C@@H](C)CC [IRPIIRPIIRPIIRPIIRPI] | 8 µM (≈ 19.3 µg/mL) | 8 µM (≈ 19.3 µg/mL) | 4 µM (≈ 9.66 µg/mL) | 8 µM (≈ 19.3 µg/mL) | 8 µM (≈ 19.3 µg/mL) | 32 µM (≈ 77.3 µg/mL) | 1 µM (≈ 2.42 µg/mL) | 8 µM (≈ 19.3 µg/mL) | 64 µM (≈ 155 µg/mL) | ≥ 64 µM | 16 µM (≈ 38.6 µg/mL) | 4 µM (≈ 9.66 µg/mL) | ≥ 64 µM | 4 µM (≈ 9.66 µg/mL) | > 64 µM | – | – | – | – | – | –
3 | CC[C@H](C)[C@@H]1NC(=O)CNC(=O)[C@H](CCCN=C(N)N)NC(=O)[C@H](Cc2ccc(O)cc2)NC(=O)[C@@H]2CSSC[C@H](NC1=O)C(=O)N[C@@H](Cc1ccc(O)cc1)C(=O)N[C@@H](CCCN=C(N)N)C(=O)N[C@@H](CCCN=C(N)N)C(=O)N[C@H](C(=O)N[C@@H](CCCN=C(N)N)C(=O)O)CSSC[C@H](NC(=O)[C@H](C)NC(=O)[C@@H](N)CCCCN)C(=O)N[C@@H](Cc1ccccc1)C(=O)N[C@@H](CCCN=C(N)N)C(=O)N[C@@H](C(C)C)C(=O)N2 [KACFRVCYRGICYRRCR] | – | > 7.43 µM | 0.232 µM (≈ 0.499 µg/mL) | 0.116 µM (≈ 0.25 µg/mL) | – | 0.232 µM (≈ 0.499 µg/mL) | – | – | – | – | – | – | – | – | 1.86 µM (≈ 3.99 µg/mL) | 0.232 µM (≈ 0.499 µg/mL) | 3.71 µM (≈ 7.99 µg/mL) | 0.232 µM (≈ 0.499 µg/mL) | 0.232 µM (≈ 0.499 µg/mL) | 0.464 µM (≈ 0.998 µg/mL) | MIC [14]: 3.71 µM (≈ 7.99 µg/mL); MIC [15]: 0.232 µM (≈ 0.499 µg/mL); MIC [16]: 0.464 µM (≈ 0.998 µg/mL)
4 | CC(C)[C@@H]1NC(=O)[C@H](CCCN=C(N)N)NC(=O)[C@H](C)NC(=O)[C@@H](NC(=O)[C@H](Cc2c[nH]c3ccccc23)NC(=O)[C@@H](N)CCCCN)CSSC[C@@H](C(=O)N[C@@H](CCCN=C(N)N)C(=O)O)NC(=O)[C@H](CCCN=C(N)N)NC(=O)[C@H](CCCN=C(N)N)NC(=O)[C@H](Cc2ccc(O)cc2)NC(=O)[C@@H]2CSSC[C@H](NC1=O)C(=O)N[C@@H](C)C(=O)N[C@@H](CCCN=C(N)N)C(=O)NCC(=O)N[C@@H](C)C(=O)N2 [KWCARVCARGACYRRCR] | – | > 7.77 µM | 7.77 µM (≈ 16 µg/mL) | 3.89 µM (≈ 7.98 µg/mL) | – | > 7.77 µM | – | – | – | – | – | – | – | – | > 7.77 µM | 7.77 µM (≈ 16 µg/mL) | 7.77 µM (≈ 16 µg/mL) | > 7.77 µM | 7.77 µM (≈ 16 µg/mL) | 7.77 µM (≈ 16 µg/mL) | MIC [14]: > 7.77 µM; MIC [15]: 7.77 µM (≈ 16 µg/mL); MIC [16]: > 7.77 µM
5 | CC[C@H](C)[C@@H]1NC(=O)CNC(=O)[C@H](CCCN=C(N)N)NC(=O)[C@H](Cc2ccc(O)cc2)NC(=O)[C@@H]2CSSC[C@H](NC1=O)C(=O)N[C@@H](Cc1ccc(O)cc1)C(=O)N[C@@H](CCCN=C(N)N)C(=O)N[C@@H](CCCN=C(N)N)C(=O)N[C@H](C(=O)N[C@@H](CCCN=C(N)N)C(=O)O)CSSC[C@H](NC(=O)[C@H](Cc1c[nH]c3ccccc13)NC(=O)[C@@H](N)CCCCN)C(=O)N[C@@H](C)C(=O)N[C@@H](CCCN=C(N)N)C(=O)N[C@@H](C(C)C)C(=O)N2 [KWCARVCYRGICYRRCR] | – | 7.3 µM (≈ 16 µg/mL) | 0.228 µM (≈ 0.499 µg/mL) | 0.057 µM (≈ 0.125 µg/mL) | – | 0.228 µM (≈ 0.499 µg/mL) | – | – | – | – | – | – | – | – | 0.912 µM (≈ 2 µg/mL) | 0.228 µM (≈ 0.499 µg/mL) | 3.65 µM (≈ 7.99 µg/mL) | 0.228 µM (≈ 0.499 µg/mL) | 0.228 µM (≈ 0.499 µg/mL) | 0.228 µM (≈ 0.499 µg/mL) | MIC [14]: 1.82 µM (≈ 3.99 µg/mL); MIC [15]: 0.114 µM (≈ 0.25 µg/mL); MIC [16]: 0.228 µM (≈ 0.499 µg/mL)
6 | CC[C@H](C)[C@@H]1NC(=O)CNC(=O)[C@H](CCCN=C(N)N)NC(=O)[C@H](Cc2ccc(O)cc2)NC(=O)[C@@H]2CSSC[C@H](NC1=O)C(=O)N[C@@H](Cc1ccc(O)cc1)C(=O)N[C@@H](CCCN=C(N)N)C(=O)N[C@@H](CCCN=C(N)N)C(=O)N[C@H](C(=O)N[C@@H](CCCN=C(N)N)C(=O)O)CSSC[C@H](NC(=O)[C@H](Cc1c[nH]c3ccccc13)NC(=O)[C@@H](N)CCCCN)C(=O)NCC(=O)N[C@@H](CCCN=C(N)N)C(=O)N[C@@H](C(C)C)C(=O)N2 [KWCGRVCYRGICYRRCR] | – | > 7.34 µM | 0.918 µM (≈ 2 µg/mL) | 0.115 µM (≈ 0.25 µg/mL) | – | 0.459 µM (≈ 0.998 µg/mL) | – | – | – | – | – | – | – | – | 7.34 µM (≈ 16 µg/mL) | 0.918 µM (≈ 2 µg/mL) | 3.67 µM (≈ 7.99 µg/mL) | 0.23 µM (≈ 0.499 µg/mL) | 0.918 µM (≈ 2 µg/mL) | 0.918 µM (≈ 2 µg/mL) | MIC [14]: 7.34 µM (≈ 16 µg/mL); MIC [15]: 0.23 µM (≈ 0.499 µg/mL); MIC [16]: 0.459 µM (≈ 0.998 µg/mL)
7 | CC(C)C[C@H](NC(=O)[C@@H]1CCCN1C(=O)[C@H](CCCCN)NC(=O)[C@H](CC(C)C)NC(=O)[C@H](CC(C)C)NC(=O)[C@@H]1CCCN1C(=O)[C@H](CCCCN)NC(=O)[C@H](CC(C)C)NC(=O)[C@H](CC(C)C)NC(=O)[C@@H]1CCCN1C(=O)[C@H](CCCCN)NC(=O)[C@H](CC(C)C)NC(=O)[C@H](CC(C)C)NC(=O)[C@@H]1CCCN1C(=O)[C@H](CCCCN)NC(=O)[C@H](CC(C)C)NC(=O)[C@H](CC(C)C)NC(=O)[C@@H]1CCCN1C(=O)[C@H](CCCCN)NC(=O)[C@H](CC(C)C)NC(=O)[C@H](CC(C)C)NC(=O)[C@@H]1CCCN1C(=O)[C@H](CCCCN)NC(=O)[C@H](CC(C)C)NC(=O)[C@H](CC(C)C)NC(=O)[C@@H]1CCCN1C(=O)[C@H](CCCCN)NC(=O)[C@@H](N)CC(C)C)C(N)=O [LKPLLKPLLKPLLKPLLKPLLKPLLKPL] | 2 µM (≈ 6.36 µg/mL) | 1 µM (≈ 3.18 µg/mL) | 1 µM (≈ 3.18 µg/mL) | 0.5 µM (≈ 1.59 µg/mL) | 1 µM (≈ 3.18 µg/mL) | 2 µM (≈ 6.36 µg/mL) | 0.5 µM (≈ 1.59 µg/mL) | 2 µM (≈ 6.36 µg/mL) | 1 µM (≈ 3.18 µg/mL) | 2 µM (≈ 6.36 µg/mL) | 2 µM (≈ 6.36 µg/mL) | 1 µM (≈ 3.18 µg/mL) | 8 µM (≈ 25.4 µg/mL) | 1 µM (≈ 3.18 µg/mL) | 5.66 µM (≈ 18 µg/mL) | – | – | – | – | – | –
8 | CC(C)C[C@H](NC(=O)[C@@H]1CCCN1C(=O)[C@H](CCCCN)NC(=O)[C@H](CC(C)C)NC(=O)[C@H](CC(C)C)NC(=O)[C@@H]1CCCN1C(=O)[C@H](CCCCN)NC(=O)[C@H](CC(C)C)NC(=O)[C@H](CC(C)C)NC(=O)[C@@H]1CCCN1C(=O)[C@H](CCCCN)NC(=O)[C@H](CC(C)C)NC(=O)[C@H](CC(C)C)NC(=O)[C@@H]1CCCN1C(=O)[C@H](CCCCN)NC(=O)[C@H](CC(C)C)NC(=O)[C@H](CC(C)C)NC(=O)[C@@H]1CCCN1C(=O)[C@H](CCCCN)NC(=O)[C@H](CC(C)C)NC(=O)[C@H](CC(C)C)NC(=O)[C@@H]1CCCN1C(=O)[C@H](CCCCN)NC(=O)[C@@H](N)CC(C)C)C(N)=O [LKPLLKPLLKPLLKPLLKPLLKPL] | 2 µM (≈ 5.45 µg/mL) | 8 µM (≈ 21.8 µg/mL) | 4 µM (≈ 10.9 µg/mL) | 1 µM (≈ 2.73 µg/mL) | 4 µM (≈ 10.9 µg/mL) | 4 µM (≈ 10.9 µg/mL) | 1 µM (≈ 2.73 µg/mL) | 4 µM (≈ 10.9 µg/mL) | 4 µM (≈ 10.9 µg/mL) | ≥ 32 µM | 8 µM (≈ 21.8 µg/mL) | 2 µM (≈ 5.45 µg/mL) | ≥ 64 µM | 2 µM (≈ 5.45 µg/mL) | 45.3 µM (≈ 123 µg/mL) | – | – | – | – | – | –
